Source: ChEMBL document CHEMBL3588812, “Thiophene and benzodioxole appended thiazolyl-pyrazoline compounds: Microwave assisted synthesis, antimicrobial and molecular docking studies” (2015)
Active and inactive are the calls of the source. No cut-off for these calls is given here.

How the values were obtained:
[1] = tested on: Micrococcus luteus; experiment: Antimicrobial activity against Micrococcus luteus MTCC 106 assessed as inhibition of visual microbial growth incubated for 24 hrs at 37 degC; format: functional; conditions: MTCC 106, 24 h
[2] = tested on: Klebsiella aerogenes; experiment: Antimicrobial activity against Enterobacter aerogenes MTCC 111 assessed as inhibition of visual microbial growth incubated for 24 hrs at 37 degC; format: functional; conditions: MTCC 111, 24 h
[3] = tested on: Staphylococcus aureus; experiment: Antimicrobial activity against methicillin-resistant Staphylococcus aureus assessed as inhibition of visual microbial growth incubated for 24 hrs at 37 degC; format: functional
[4] = tested on: Candida albicans; experiment: Antimicrobial activity against Candida albicans MTCC 227 assessed as inhibition of visual microbial growth incubated for 48 to 72 hrs at 28 degC; format: functional
[5] = tested on: Proteus vulgaris; experiment: Antimicrobial activity against Proteus vulgaris MTCC 1771 assessed as inhibition of visual microbial growth incubated for 24 hrs at 37 degC; format: functional
[6] = tested on: Shigella flexneri; experiment: Antimicrobial activity against Shigella flexneri MTCC 1457 assessed as inhibition of visual microbial growth incubated for 24 hrs at 37 degC; format: functional
[7] = tested on: Staphylococcus aureus; experiment: Antimicrobial activity against Staphylococcus aureus MTCC 96 assessed as inhibition of visual microbial growth incubated for 24 hrs at 37 degC; format: functional; conditions: MTCC 96, 24 h
[8] = tested on: Klebsiella pneumoniae; experiment: Antimicrobial activity against Klebsiella pneumoniae MTCC 109 assessed as inhibition of visual microbial growth incubated for 24 hrs at 37 degC; format: functional; conditions: MTCC 109, 24 h
[9] = tested on: Malassezia pachydermatis; experiment: Antimicrobial activity against Malassezia pachydermatis assessed as inhibition of visual microbial growth incubated for 48 to 72 hrs at 28 degC; format: functional
[10] = tested on: Salmonella typhimurium; experiment: Antimicrobial activity against Salmonella typhimurium MTCC 1251 assessed as inhibition of visual microbial growth incubated for 24 hrs at 37 degC; format: functional, Salmonella enterica subsp. enterica serovar Typhimurium; conditions: Salmonella enterica, MTCC 1251, 24 h

Row | Compound | MIC [1] [µg/mL] | MIC [2] [µg/mL] | MIC [3] | MIC [4] [µg/mL] | MIC [5] | MIC ([6]; MTCC 1457, 24 h) [µg/mL] | MIC [7] [µg/mL] | MIC [8] [µg/mL] | MIC [9] [µg/mL] | MIC [10] [µg/mL] | MIC ([5]; MTCC 1771, 24 h) [µg/mL] | MIC [6]
1 | O=[N+]([O-])c1ccc(-c2csc(N3N=C(c4cccs4)CC3c3ccc4c(c3)OCO4)n2)cc1 (centres undefined) | 250 | 500 | inactive | 250 | inactive | 500 | 500 | 500 | 500 | 500 | – | –
2 | Fc1cc(Cl)ccc1-c1csc(N2N=C(c3cccs3)CC2c2ccc3c(c2)OCO3)n1 (centres undefined) | 250 | 250 | 125 µg/mL | 250 | – | 125 | 250 | 125 | 250 | 125 | 500 | –
3 | Clc1ccc(-c2csc(N3N=C(c4cccs4)CC3c3cc4c(cc3Br)OCO4)n2)cc1 (centres undefined) | 31.2 | 125 | 62.5 µg/mL | 125 | – | 125 | 125 | 31.2 | 125 | 62.5 | 250 | –
4 | OC(Cn1cncn1)(Cn1cncn1)c1ccc(F)cc1F [FLUCONAZOLE] | – | – | – | – | – | – | – | – | 24 | – | – | –
5 | O=[N+]([O-])c1ccc(-c2csc(N3N=C(c4cccs4)CC3c3cc4c(cc3Br)OCO4)n2)cc1 (centres undefined) | 125 | 250 | 62.5 µg/mL | 125 | – | 250 | 250 | 250 | 500 | 62.5 | 125 | –
6 | CN[C@@H]1[C@H](O[C@H]2[C@H](O[C@H]3[C@H](O)[C@@H](O)[C@H](N=C(N)N)[C@@H](O)[C@@H]3N=C(N)N)O[C@@H](C)[C@]2(O)C=O)O[C@@H](CO)[C@H](O)[C@H]1O [STREPTOMYCIN] | 6.25 | 25 | 6.25 µg/mL | – | – | 6.25 | 6.25 | 6.25 | – | 30 | – | –
7 | GENTAMICIN | – | – | – | – | 32 µg/mL | – | – | – | – | – | – | –
8 | N#Cc1ccc(-c2csc(N3N=C(c4cccs4)CC3c3cc4c(cc3Br)OCO4)n2)cc1 (centres undefined) | 62.5 | 125 | 125 µg/mL | 125 | – | 125 | 62.5 | 125 | 125 | 125 | 62.5 | –
9 | Fc1ccc(-c2csc(N3N=C(c4cccs4)CC3c3ccc4c(c3)OCO4)n2)cc1 (centres undefined) | 250 | 125 | 250 µg/mL | 125 | – | 250 | 500 | 250 | 250 | 500 | 500 | –
10 | Fc1ccccc1-c1csc(N2N=C(c3cccs3)CC2c2cc3c(cc2Br)OCO3)n1 (centres undefined) | 125 | 250 | 250 µg/mL | 125 | – | 250 | 250 | 250 | 500 | 125 | 500 | –
11 | N#Cc1ccc(-c2csc(N3N=C(c4cccs4)CC3c3ccc4c(c3)OCO4)n2)cc1 (centres undefined) | 125 | 250 | 250 µg/mL | 125 | – | 250 | 125 | 250 | 500 | 125 | 125 | –
12 | Fc1ccccc1-c1csc(N2N=C(c3cccs3)CC2c2ccc3c(c2)OCO3)n1 (centres undefined) | 125 | 500 | 250 µg/mL | 500 | – | – | 250 | 500 | 500 | 250 | 500 | inactive
